# Laboratory results from US11000033B2, “Ketone or oxime compound, and herbicide” (NISSAN CHEMICAL CORPORATION, priority 2014, dated 2021).
# Assays:
# Format in all cases: in vivo
# wheat = experiment: Test Example 5: effect on crop by foliage application, plastic box (symbol e); conditions: 320 g/ha, 3 weeks after application
# In short: (§1)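 Soil: sterilized diluvial. Container: plastic box, 21 × 13 cm, 7 cm deep. Sowing: spot-like, ~1.5 cm cover. Growth: greenhouse, 25° C. to 30° C.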
# Lolium multiflorum Lam. [1] = experiment: Test Example 5: herbicidal effect by foliage application, plastic box (symbol K); conditions: 320 g/ha, 3 weeks after application
# In short: (§2)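 Emulsion formulation, diluted with water to the intended rate, was applied uniformly to leaves by small sprayer. Recipients were 14-day greenhouse-grown seedlings (25° C. to 30° C.). Assessment followed at 3 weeks.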
# [2] = system: Echinochloa crus-galli var. crus-galli; experiment: Test Example 4: herbicidal effect by soil treatment (symbol H); conditions: application herbicide amount 320 g/ha
# In short: (§3)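 Seeds were sown in sterilized diluvial soil, covered with about 1.5 cm of soil, and the soil surface was sprayed with a water-diluted emulsion of the compound at a predetermined rate. Plants grew in a greenhouse at 25° C. to 30° C.; effects were scored visually 3 weeks after application.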
# Amaranthus retroflexus = experiment: Test Example 4: herbicidal effect by soil treatment (symbol N); conditions: application herbicide amount 320 g/ha
# In short: as §3
# Avena fatua = experiment: Test Example 5: herbicidal effect by foliage application, plastic box (symbol I); conditions: 320 g/ha, 3 weeks after application
# In short: as §2
# Abutilon theophrasti [3] = experiment: Test Example 4: herbicidal effect by soil treatment (symbol M); conditions: application herbicide amount 320 g/ha
# In short: as §3
# Digitaria ciliaris = experiment: Test Example 4: herbicidal effect by soil treatment (symbol F); conditions: application herbicide amount 320 g/ha
# In short: as §3
# Cyperus difformis = experiment: Test Example 3: herbicidal effect by foliage application, Wagner pot (symbol E); conditions: application herbicide amount 320 g/ha
# In short: (§4)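 Herbicidal activity was rated three weeks after a foliar spray of diluted emulsion concentrate, applied at a predetermined dose to plants grown for 14 days from seed in waterlogged alluvial soil within a 25–30 °C greenhouse.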
# Abutilon theophrasti [4] = experiment: Test Example 5: herbicidal effect by foliage application, plastic box (symbol M); conditions: 320 g/ha, 3 weeks after application
# In short: as §2
# soybean = experiment: Test Example 4: effect on crop by soil treatment (symbol d); conditions: application herbicide amount 320 g/ha
# In short: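 Soil-treatment setup: crop and weed seeds were spot-sown into sterilized diluvial soil, then buried beneath approximately 1.5 cm of it, and the boxes were housed in a 25–30° C. greenhouse.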
# Stellaria media = experiment: Test Example 5: herbicidal effect by foliage application, plastic box (symbol P); conditions: 320 g/ha, 3 weeks after application
# In short: as §2
# Apera spica-venti = experiment: Test Example 5: herbicidal effect by foliage application, plastic box (symbol L); conditions: 320 g/ha, 3 weeks after application
# In short: as §2
# beet = experiment: Test Example 5: effect on crop by foliage application, plastic box (symbol f); conditions: 320 g/ha, 3 weeks after application
# In short: as §1
# Leptochloa chinensis = experiment: Test Example 3: herbicidal effect by foliage application, Wagner pot (symbol D); conditions: application herbicide amount 320 g/ha
# In short: as §4
# [5] = system: directly sowed rice plant; experiment: Test Example 3: effect on crop by foliage application, Wagner pot (symbol b); conditions: application herbicide amount 320 g/ha
# In short: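 Steps: fill a 1/10000-are Wagner pot with alluvial soil; add water and mix to submerge at 0.1–0.5 cm depth; sow rice plus Echinochloa crus-galli var. crus-galli, Leptochloa chinensis and Cyperus difformis; grow in a 25–30 °C greenhouse.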
# rapeseed = experiment: Test Example 5: effect on crop by foliage application, plastic box (symbol g); conditions: 320 g/ha, 3 weeks after application
# In short: as §1
# Setaria viridis = experiment: Test Example 5: herbicidal effect by foliage application, plastic box (symbol G); conditions: 320 g/ha, 3 weeks after application
# In short: as §2
# Chenopodium album = experiment: Test Example 5: herbicidal effect by foliage application, plastic box (symbol O); conditions: 320 g/ha, 3 weeks after application
# In short: as §2
# Lolium multiflorum Lam. [6] = experiment: Test Example 4: herbicidal effect by soil treatment (symbol K); conditions: application herbicide amount 320 g/ha
# In short: as §3
# corn [7] = experiment: Test Example 5: effect on crop by foliage application, plastic box (symbol c); conditions: 320 g/ha, 3 weeks after application
# In short: as §1
# corn [8] = experiment: Test Example 4: effect on crop by soil treatment (symbol c); conditions: application herbicide amount 320 g/ha
# In short: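 Crop seed is sown in spots together with several weed species in a box of sterilized diluvial soil. It is covered by about 1.5 cm of soil and kept in a greenhouse held between 25° C. and 30° C.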
SMILES,"e: wheat, effect on crop grade (wheat)","K: Lolium multiflorum Lam., herbicidal effect grade (Lolium multiflorum Lam. [1])","H: Echinochloa crus-galli var. crus-galli, herbicidal effect grade [2]","N: Amaranthus retroflexus, herbicidal effect grade (Amaranthus retroflexus)","I: Avena fatua, herbicidal effect grade (Avena fatua)","M: Abutilon theophrasti, herbicidal effect grade (Abutilon theophrasti [3])","F: Digitaria ciliaris, herbicidal effect grade (Digitaria ciliaris)","herbicidal effect on E, grade 0-5 (Cyperus difformis)","M: Abutilon theophrasti, herbicidal effect grade (Abutilon theophrasti [4])","d: soybean, effect on crop grade (soybean)","P: Stellaria media, herbicidal effect grade (Stellaria media)","L: Apera spica-venti, herbicidal effect grade (Apera spica-venti)","f: beet, effect on crop grade (beet)","herbicidal effect on D (Leptochloa chinensis), grade 0-5 (Leptochloa chinensis)","effect on crop b (directly sowed rice plant), grade 0-5 [5]","g: rapeseed, effect on crop grade (rapeseed)","G: Setaria viridis, herbicidal effect grade (Setaria viridis)","O: Chenopodium album, herbicidal effect grade (Chenopodium album)","K: Lolium multiflorum Lam., herbicidal effect grade (Lolium multiflorum Lam. [6])","c: corn, effect on crop grade (corn [7])",further results
Cc1cc(C)c(C2=C(O)CC(CC(=O)CC3CC3)C2=O)c(C)c1 (stereo not drawn) [2-026],0 (Herbicidal ratio of 5% or lower (almost no effect)),5 (Herbicidal ratio of 90% or more (almost completely withered)),5 (Herbicidal ratio of 90% or more (almost completely withered)),0 (Herbicidal ratio of 5% or lower (almost no effect)),4 (Herbicidal ratio of 70% or higher and lower than 90%),0 (Herbicidal ratio of 5% or lower (almost no effect)),5 (Herbicidal ratio of 90% or more (almost completely withered)),5 (Herbicidal ratio of 90% or more (almost completely withered)),0 (Herbicidal ratio of 5% or lower (almost no effect)),0 (Herbicidal ratio of 5% or lower (almost no effect)),0 (Herbicidal ratio of 5% or lower (almost no effect)),3 (Herbicidal ratio of 40% or higher and lower than 70%),0 (Herbicidal ratio of 5% or lower (almost no effect)),4 (Herbicidal ratio of 70% or higher and lower than 90%),5 (Herbicidal ratio of 90% or more (almost completely withered)),3 (Herbicidal ratio of 40% or higher and lower than 70%),5 (Herbicidal ratio of 90% or more (almost completely withered)),0 (Herbicidal ratio of 5% or lower (almost no effect)),5 (Herbicidal ratio of 90% or more (almost completely withered)),2 (Herbicidal ratio of 20% or higher and lower than 40%),"c: corn, effect on crop grade (corn [8]): 1 (Herbicidal ratio of 5% or higher and lower than 20%)"
Cc1cc(C)c(C2=C(O)CC(CC(=O)C3CCCC3)C2=O)c(C)c1 (stereo not drawn) [2-028],0 (Herbicidal ratio of 5% or lower (almost no effect)),5 (Herbicidal ratio of 90% or more (almost completely withered)),1 (Herbicidal ratio of 5% or higher and lower than 20%),0 (Herbicidal ratio of 5% or lower (almost no effect)),0 (Herbicidal ratio of 5% or lower (almost no effect)),1 (Herbicidal ratio of 5% or higher and lower than 20%),4 (Herbicidal ratio of 70% or higher and lower than 90%),4 (Herbicidal ratio of 70% or higher and lower than 90%),0 (Herbicidal ratio of 5% or lower (almost no effect)),0 (Herbicidal ratio of 5% or lower (almost no effect)),0 (Herbicidal ratio of 5% or lower (almost no effect)),1 (Herbicidal ratio of 5% or higher and lower than 20%),0 (Herbicidal ratio of 5% or lower (almost no effect)),5 (Herbicidal ratio of 90% or more (almost completely withered)),5 (Herbicidal ratio of 90% or more (almost completely withered)),3 (Herbicidal ratio of 40% or higher and lower than 70%),5 (Herbicidal ratio of 90% or more (almost completely withered)),0 (Herbicidal ratio of 5% or lower (almost no effect)),5 (Herbicidal ratio of 90% or more (almost completely withered)),4 (Herbicidal ratio of 70% or higher and lower than 90%),"c: corn, effect on crop grade (corn [8]): 2 (Herbicidal ratio of 20% or higher and lower than 40%)"
Cc1cc(C)c(C2=C(O)CC(CC(=O)C3CCCCC3)C2=O)c(C)c1 (stereo not drawn) [2-030],0 (Herbicidal ratio of 5% or lower (almost no effect)),5 (Herbicidal ratio of 90% or more (almost completely withered)),1 (Herbicidal ratio of 5% or higher and lower than 20%),0 (Herbicidal ratio of 5% or lower (almost no effect)),1 (Herbicidal ratio of 5% or higher and lower than 20%),0 (Herbicidal ratio of 5% or lower (almost no effect)),4 (Herbicidal ratio of 70% or higher and lower than 90%),0 (Herbicidal ratio of 5% or lower (almost no effect)),0 (Herbicidal ratio of 5% or lower (almost no effect)),0 (Herbicidal ratio of 5% or lower (almost no effect)),0 (Herbicidal ratio of 5% or lower (almost no effect)),2 (Herbicidal ratio of 20% or higher and lower than 40%),0 (Herbicidal ratio of 5% or lower (almost no effect)),5 (Herbicidal ratio of 90% or more (almost completely withered)),5 (Herbicidal ratio of 90% or more (almost completely withered)),3 (Herbicidal ratio of 40% or higher and lower than 70%),5 (Herbicidal ratio of 90% or more (almost completely withered)),0 (Herbicidal ratio of 5% or lower (almost no effect)),4 (Herbicidal ratio of 70% or higher and lower than 90%),2 (Herbicidal ratio of 20% or higher and lower than 40%),"c: corn, effect on crop grade (corn [8]): 1 (Herbicidal ratio of 5% or higher and lower than 20%)"
C=CC(=O)CC1CC(O)=C(c2c(C)cc(C)cc2C)C1=O (stereo not drawn) [2-031],0 (Herbicidal ratio of 5% or lower (almost no effect)),5 (Herbicidal ratio of 90% or more (almost completely withered)),5 (Herbicidal ratio of 90% or more (almost completely withered)),0 (Herbicidal ratio of 5% or lower (almost no effect)),5 (Herbicidal ratio of 90% or more (almost completely withered)),1 (Herbicidal ratio of 5% or higher and lower than 20%),5 (Herbicidal ratio of 90% or more (almost completely withered)),5 (Herbicidal ratio of 90% or more (almost completely withered)),0 (Herbicidal ratio of 5% or lower (almost no effect)),0 (Herbicidal ratio of 5% or lower (almost no effect)),0 (Herbicidal ratio of 5% or lower (almost no effect)),4 (Herbicidal ratio of 70% or higher and lower than 90%),0 (Herbicidal ratio of 5% or lower (almost no effect)),5 (Herbicidal ratio of 90% or more (almost completely withered)),5 (Herbicidal ratio of 90% or more (almost completely withered)),4 (Herbicidal ratio of 70% or higher and lower than 90%),5 (Herbicidal ratio of 90% or more (almost completely withered)),0 (Herbicidal ratio of 5% or lower (almost no effect)),5 (Herbicidal ratio of 90% or more (almost completely withered)),5 (Herbicidal ratio of 90% or more (almost completely withered)),"c: corn, effect on crop grade (corn [8]): 5 (Herbicidal ratio of 90% or more (almost completely withered))"
